The results in this text go back to US6794397B2, “Substituted nicotinamides and analogs as activators of caspases and inducers of apoptosis and the use thereof” (Cytovia, Inc., priority 2000, dated 2004).

One experiment relates to T47D. The experiment can be described thus: Caspase cascade activation assay (N-(Ac-DEVD)-N'-ethoxycarbonyl-R110 fluorogenic substrate) in T47D cells. It counts as cell-based, Human. The conditions noted are these: 24 h incubation; for EC50 / EC50 (nM) caspase potency: sigmoidal dose-response; for EC50: read-out: EC50 (nM) caspase potency; for Caspase activity Ratio: ratio of net RFU of test compound to control, 0.16 to 10 μM final. Here is the method:
(§1) Human breast cancer cell lines T47D and ZR75-1 were grown according to media component mixtures designated by American Type Culture Collection +10% FCS (Invitrogen Corporation, Life Technologies Division), in a 5% CO2 −95% humidity incubator at 37° C. T47D and ZR75-1 cells were maintained at a cell density between 30 and 80% confluency at a cell density of 0.1 to 0.6×10^6 cells/ml. Cells were harvested at 600xg and resuspended at 0.65×10^6 cells/ml into appropriate media +10% FCS. An aliquot of 45 μl of cells was added to a well of a 96-well microtiter plate containing 5 μl of a 10% DMSO in RPMI-1640 media solution containing 1.6 to 100 μM of N-(4-methoxy-2-nitrophenyl)-3-pyridinecarboxamide or other test compound (0.16 to 10 μM final). An aliquot of 45 μl of cells was added to a well of a 96-well microtiter plate containing 5 μl of a 10% DMSO in RPMI-1640 media solution without test compound as the control sample. The samples were mixed by agitation and then incubated at 37 C. for 24 h in a 5% CO2 −95% humidity incubator. After incubation, the samples were removed from the incubator and 50 μl of a solution containing 20 μM of N-(Ac-DEVD)-N′-ethoxycarbonyl-R110 (SEQ ID NO: 1) fluorogenic substrate (Cytovia, Inc.; WO99/18856), 20% sucrose (Sigma), 20 mM DTT (Sigma), 200 mM NaCl (Sigma), 40 mM Na PIPES buffer pH 7.2 (Sigma), and 500 μg/ml lysolecithin (Calbiochem) was added. The samples were mixed by agitation and incubated at room temperature. Using a fluorescent plate reader (Model 1420 Wallac Instruments), an initial reading (T=0) was made approximately 1-2 min after addition of the substrate solution, employing excitation at 485 nm and emission at 530 nm, to determine the background fluorescence of the control sample. After the 3 h incubation, the samples were read for fluorescence as above (T=3 h).
(§2) The Relative Fluorescence Unit values (RFU) were used to calculate the sample readings as follows:
(§3) RFU(T=3h)−Control RFU(T=0)=Net RFU(T=3h).
(§4) The activity of caspase cascade activation was determined by the ratio of the net RFU value for N-(4-methoxy-2-nitrophenyl)-3-pyridinecarboxamide or other test compound to that of control samples. The EC50 (nM) was determined by a sigmoidal dose-response calculation (Prism 2.0, GraphPad Software Inc.).

A further experiment concerns ZR75-1. The experiment can be described thus: Caspase cascade activation assay (N-(Ac-DEVD)-N'-ethoxycarbonyl-R110 fluorogenic substrate) in ZR75-1 cells. The format is cell-based, Human. The conditions noted are these: for EC50 / EC50 (nM) caspase potency: sigmoidal dose-response; for EC50: read-out: EC50 (nM) caspase potency; for Caspase activity Ratio: ratio of net RFU of test compound to control, 0.16 to 10 μM final. Here is the method: as §1, §2, §3, §4

Where [1] appears, read: Homo sapiens, ZR-75-1, 24 h incubation.

Read-outs that look alike come from different tables or passages of the source.

As a reminder, the EC50 is the concentration needed to bring the measured effect to its halfway point. `CCOc1ccc(NC(=O)c2ccc(C)nc2)c([N+](=O)[O-])c1` [Example 26, 6-Methyl-N-(4-ethoxy-2-nitrophenyl)-3-pyridinecarboxamide]: the results for the EC50 in the experiment on T47D (Homo sapiens) and with ZR75-1 (setting [1]) were 42 nM and 20 nM, respectively. Also, the “Caspase activity Ratio” value was found to be 5.5 in the experiment on T47D and 3.2 with ZR75-1 (24 h incubation).

Take `COc1ccc(NC(=O)c2ccc(Cl)nc2)c(C)c1` [Example 20, 6-Chloro-N-(4-methoxy-2-methylphenyl)-3-pyridinecarboxamide]: the “EC50 (nM) caspase potency” value in the experiment on T47D and with ZR75-1 (24 h incubation) was “Inactive” each time. The “Caspase activity Ratio” value in the experiment with T47D and in the experiment on ZR75-1 (24 h incubation) was “Inactive” each time.

`COc1cc([N+](=O)[O-])c(NC(=O)c2ccc(Cl)nc2)cc1Br` [Example 4, 6-Chloro-N-(3-bromo-4-methoxy-6-nitrophenyl)-3-pyridinecarboxamide]: in the experiment with T47D, the “EC50 (nM) caspase potency” value is recorded as “Inactive” and the “Caspase activity Ratio” value is given as “Inactive”. The EC50 in the experiment on ZR75-1 (setting [1]) came out at 4030 nM. Besides, in the experiment with ZR75-1 (24 h incubation), the “Caspase activity Ratio” value turned out to be 3.2.

Consider `COc1ccc(NC(=O)c2cnc(Cl)nc2C(F)(F)F)c([N+](=O)[O-])c1` [Example 13, 2-Chloro-4trifluoromethyl-N-(4methoxy-2-nitrophenyl)-5-pyrimidinecarboxamide], for which, in the experiment on T47D, the “EC50 (nM) caspase potency” value was “Inactive” and the “Caspase activity Ratio” value is listed as “Inactive”. Moreover, in the experiment with ZR75-1 (24 h incubation), the “EC50 (nM) caspase potency” value is on record as “Inactive” and the “Caspase activity Ratio” value is “Inactive”.

As to `COc1ccc(NC(=O)c2ccc(Cl)[n+]([O-])c2)c([N+](=O)[O-])c1` [Example 28, 6-Chloro-N-(4-methoxy-2-nitrophenyl)-1-N-oxide-3-pyridinecarboxamide], in the experiment with T47D, the concentration giving a half-maximal response (EC50) was found to be 7330 nM and the “Caspase activity Ratio” value stood at 2.4. In addition, in the experiment with ZR75-1 (24 h incubation), the concentration for a half-maximal effect (EC50) worked out at 4510 nM and the “Caspase activity Ratio” value is listed as 5.1.

`Cc1cc(NC(=O)c2ccc(Cl)nc2)c([N+](=O)[O-])cc1C` [Example 27, 6-Chloro-N-(4,5-dimethyl-2-nitrophenyl)-3-pyridinecarboxamide]: in the experiment on T47D, the “EC50 (nM) caspase potency” value is reported as “Inactive” and the “Caspase activity Ratio” value was “Inactive”. In the experiment on ZR75-1 (24 h incubation), the “EC50 (nM) caspase potency” value was “Inactive” and the “Caspase activity Ratio” value is “Inactive”.

For `CCOc1ccc(NC(=O)c2ccc(F)nc2)c([N+](=O)[O-])c1` [Example 22, 6-Fluoro-N-(4-ethoxy-2-nitrophenyl)-3-pyridinecarboxamide], the EC50 in the experiment on T47D (Homo sapiens) is 466 nM; in the experiment on ZR75-1 (setting [1]), 295 nM. The entries for the “Caspase activity Ratio” value in the experiment on T47D and in the experiment on ZR75-1 (24 h incubation) were 7.6 and 6.6, respectively.

Regarding `COc1ccc(NC(=O)c2ccncc2)c([N+](=O)[O-])c1` [Example 14, N-(4-methoxy-2-nitrophenyl)-4-pyridinecarboxamide], the “EC50 (nM) caspase potency” value with T47D and in the experiment with ZR75-1 (24 h incubation) was “Inactive” throughout. Further, the “Caspase activity Ratio” value in the experiment on T47D and in the experiment with ZR75-1 (24 h incubation) was “Inactive” in each case.

As to `COc1ccc(NC(=O)c2cc(Cl)nc(Cl)c2)c([N+](=O)[O-])c1` [Example 12, 2,6-Dichloro-N-(4-methoxy-2-nitrophenyl)-4-pyridinecarboxamide], in the experiment on T47D, the “EC50 (nM) caspase potency” value was “Inactive” and the “Caspase activity Ratio” value was “Inactive”. In the experiment with ZR75-1 (24 h incubation), the “EC50 (nM) caspase potency” value was “Inactive” and the “Caspase activity Ratio” value is listed as “Inactive”.

In the case of `O=C(Nc1cc(F)c(F)cc1[N+](=O)[O-])c1ccc(Cl)nc1` [Example 19, 6-Chloro-N-(4,5-difluoro-2-nitrophenyl)-3-pyridinecarboxamide], the EC50 in the experiment with T47D (Homo sapiens) is 3550 nM; in the experiment on ZR75-1 (setting [1]), 6880 nM. Also, the “Caspase activity Ratio” value stood at 2.7 in the experiment on T47D and 3.8 in the experiment on ZR75-1 (24 h incubation).

`O=C(Nc1ccc(C(F)(F)F)cc1[N+](=O)[O-])c1ccc(Cl)nc1` [Example 1, 6-Chloro-N-(2-nitro-4-trifluoromethylphenyl)-3-pyridinecarboxamide]: the 50% effective concentration (EC50) in the experiment on T47D (Homo sapiens) is 2970 nM; in the experiment with ZR75-1 (setting [1]), 729 nM. Further, the “Caspase activity Ratio” value is reported as 8.9 in the experiment on T47D and 3.6 with ZR75-1 (24 h incubation).

For the molecule `COc1ccc(NC(=O)c2cccnc2Cl)c([N+](=O)[O-])c1` [Example 6, 2-Chloro-N-(4-methoxy-2-nitrophenyl)-3-pyridinecarboxamide], in the experiment on T47D, the “EC50 (nM) caspase potency” value is recorded as “Inactive” and the “Caspase activity Ratio” value is given as “Inactive”. Moreover, in the experiment on ZR75-1 (24 h incubation), the “EC50 (nM) caspase potency” value is “Inactive” and the “Caspase activity Ratio” value is on record as “Inactive”.

For `CCOc1ccc(N(C)C(=O)c2ccc(Cl)nc2)c([N+](=O)[O-])c1` [Example 30, 6-Chloro-N-(4-ethoxy-2-nitrophenyl)-N-methyl-3-pyridinecarboxamide], in the experiment on T47D, the “EC50 (nM) caspase potency” value was “Inactive” and the “Caspase activity Ratio” value is recorded as “Inactive”. In the experiment on ZR75-1 (24 h incubation), the “EC50 (nM) caspase potency” value is listed as “Inactive” and the “Caspase activity Ratio” value is on record as “Inactive”.

As for “4-Chloro-N-(4-ethoxy-2-nitrophenyl)-benzoylamide [Example 18]”, in the experiment on T47D, the EC50 came out at 6750 nM and the “Caspase activity Ratio” value was 3.0. Moreover, in the experiment on ZR75-1 (24 h incubation), the half-maximal effective concentration (EC50) is 3840 nM and the “Caspase activity Ratio” value is given as 5.1.

With `COc1ccc(NC(=O)c2ccc(Cl)nc2)c(OC)c1` [Example 5, 6-Chloro-N-(2,4-dimethoxyphenyl)-3-pyridinecarboxamide], the “EC50 (nM) caspase potency” value with T47D and in the experiment with ZR75-1 (24 h incubation) was “Inactive” throughout. Also, the “Caspase activity Ratio” value with T47D and in the experiment on ZR75-1 (24 h incubation) was “Inactive” in each case.

With `O=C(Nc1ccc(C(=O)c2ccccc2)cc1[N+](=O)[O-])c1ccc(Cl)nc1` [Example 24, 6-Chloro-N-(4-benzoyl-2-nitrophenyl)-3-pyridinecarboxamide], the “EC50 (nM) caspase potency” value in the experiment on T47D and in the experiment with ZR75-1 (24 h incubation) was “Inactive” throughout. For the same molecule, the “Caspase activity Ratio” value in the experiment with T47D and in the experiment with ZR75-1 (24 h incubation) was “Inactive” throughout.

Regarding `N#Cc1ccc(NC(=O)c2ccc(Cl)nc2)c([N+](=O)[O-])c1` [Example 21, 6-Chloro-N-(4-cyano-2-nitrophenyl)-3-pyridinecarboxamide], the “EC50 (nM) caspase potency” value in the experiment on T47D is “Inactive”. In addition, the “Caspase activity Ratio” value is “Inactive” in the experiment with T47D and 2.3 in the experiment on ZR75-1 (24 h incubation). The half-maximal effective concentration (EC50) in the experiment with ZR75-1 (setting [1]) was 4670 nM.

With `O=C(Nc1ccc([N+](=O)[O-])cc1[N+](=O)[O-])c1ccc(Cl)nc1` [Example 17, 6-Chloro-N-(2,4-dinitrophenyl)-3-pyridinecarboxamide], in the experiment on T47D, the “EC50 (nM) caspase potency” value is given as “Inactive” and the “Caspase activity Ratio” value is on record as “Inactive”. Moreover, in the experiment on ZR75-1 (24 h incubation), the “EC50 (nM) caspase potency” value is on record as “Inactive” and the “Caspase activity Ratio” value was “Inactive”.

As for `COc1ccc(NC(=O)c2ccc(Cl)nc2)cc1` [Example 11, 6-Chloro-N-(4-methoxyphenyl)-3-pyridinecarboxamide], the “EC50 (nM) caspase potency” value in the experiment on T47D and in the experiment with ZR75-1 (24 h incubation) was “Inactive” each time. Further, the “Caspase activity Ratio” value in the experiment with T47D and with ZR75-1 (24 h incubation) was “Inactive” throughout.

For `O=C(Nc1ccc(OC(F)(F)F)cc1[N+](=O)[O-])c1ccc(Cl)nc1` [Example 23, 6-Chloro-N-(2-nitro-4-tifluoromethoxyphenyl)-3-pyridinecarboxamide], in the experiment with T47D, the half-maximal effective concentration (EC50) was 608 nM and the “Caspase activity Ratio” value is listed as 7.2. For the same molecule, in the experiment on ZR75-1 (24 h incubation), the half-maximal effective concentration (EC50) is 171 nM and the “Caspase activity Ratio” value is reported as 9.9.
